In patent US20030212123A1, “COX-2 selective carprofen for treating pain and inflammation in dogs” (Pfizer Inc., priority 1997, published 2003):
Several values for one entry are separate records, joined by “and”; a condition that tells them apart may be missing. Equal entries are not always repeated. Where two headings read alike, the source gives them in different places.

What was measured:
COX-2 [1] = molecular target: T1, COX-2 (Canis lupus familiaris, UniProt Q8SPQ9); test: in vivo; conditions: for PGE2 Pg/mL/Well: individual dogs; for inhibition at 2 mg/kg / inhibition at 4 mg/kg: dog, po
T1 sequence (Q8SPQ9 18-604): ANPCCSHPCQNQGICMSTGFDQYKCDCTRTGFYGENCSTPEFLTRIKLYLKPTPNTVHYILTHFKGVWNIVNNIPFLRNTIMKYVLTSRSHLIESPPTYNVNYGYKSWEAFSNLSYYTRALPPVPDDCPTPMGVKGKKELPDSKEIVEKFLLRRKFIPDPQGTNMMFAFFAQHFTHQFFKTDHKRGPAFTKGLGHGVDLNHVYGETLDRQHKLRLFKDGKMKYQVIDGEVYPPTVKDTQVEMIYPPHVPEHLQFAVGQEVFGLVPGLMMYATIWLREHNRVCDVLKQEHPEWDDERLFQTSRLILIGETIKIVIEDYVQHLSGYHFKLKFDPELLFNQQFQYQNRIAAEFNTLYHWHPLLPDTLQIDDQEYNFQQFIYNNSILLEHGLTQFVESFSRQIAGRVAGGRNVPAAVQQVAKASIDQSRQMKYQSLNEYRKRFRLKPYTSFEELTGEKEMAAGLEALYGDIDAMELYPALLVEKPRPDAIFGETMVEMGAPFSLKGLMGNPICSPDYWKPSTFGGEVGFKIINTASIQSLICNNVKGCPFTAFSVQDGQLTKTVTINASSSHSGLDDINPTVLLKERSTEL
Method: A zero-hour blood sample was collected from all dogs in the study prior to dosing, followed by 2- and 4-hour post-dose blood sample collections. Test tubes were prepared containing 2 μL of lipopolysaccharide (LPS) to give a 10 μg/mL final concentration. Untreated test tubes were used as controls. A 500 μL sample of blood was added to each of the above-described test tubes, after which they were incubated at 37° C. overnight. After incubation […] of EDTA was added to give a final concentration of 0.3%. The incubated samples were centrifuged at 4° C. and the resulting plasma sample of 200 μL was collected and stored at −20° C. in propylene 96-well plates. Enzyme immunoassay (EIA) kits available from Cayman were used to measure production of PGE2, with endpoint determination by colorimetry. Plasma samples were diluted to 1/750 for PGE2.

[2] = Total plasma carprofen concentration by chiral HPLC, Example 3; type: in vivo, dog; conditions: individual dogs
Description: (§1) The ether layer was separated, then back-extracted with 0.005 M Na2CO3, after which the organic phase was discarded by aspiration. The aqueous phase was buffered with 0.05 M citric acid pH 5.1, then was again extracted with diethyl ether:dichloromethane. The ether was then transferred to clean tubes, evaporated under a stream of nitrogen, and the residue reconstituted in HPLC mobile phase for analysis.
as §1

COX-2 [3] = molecular target: T1, COX-2; test: in vivo; conditions: for PGE2 Pg/mL/Well: 2 mg/kg PO 30 min before carrageenan, exudate fluid, group average; for inhibition at 2 mg/kg: dog, po
Method: This objective of this study was to monitor in vivo COX-2 activity in a subcutaneously implanted chamber during an induced inflammation. The COX-2 enzyme can be detected by western analysis as early as 5 hours after carrageenan treatments (T. Kirchner et al., J. Pharmacol. Exp. Ther. (1997) 282, 1094-1101). […] Six beagle dogs had polyethylene “whiffle” golf balls approximately 4.2 cm in outer diameter surgically implanted under the skin just behind the shoulder blades.
The experiment was run in two replicates. […] The hair around the ball was shaved and the area was probed to locate a hole in the whiffle ball. This area was then marked and it was sterilized with 2% iodine tincture. […] EF samples were taken at 0, 5, and 24 hours after carrageenan injection.
The column was first washed with 10 mL of 0.1 M phosphate buffer then 10 mL water. The EF was then diluted 1:5 with 0.1 M phosphate buffer and added to the column. The column was washed with 10 mL of the phosphate buffer, then 10 mL of water. Finally, the PGE2 was removed from the column with 2.5 mL 95% ethanol.

COX-1 = molecular target: T2, COX-1 (Rattus norvegicus, UniProt Q63921); test: Rat in vivo COX-1: PGE2 production in mucosal lining of stomach (Griffiths et al.)
T2 construct: as measured in the mucosal lining of the rat stomach; from tissue; host or cells: mucosal lining of the rat stomach, in vivo
T2 sequence (Q63921 27-602): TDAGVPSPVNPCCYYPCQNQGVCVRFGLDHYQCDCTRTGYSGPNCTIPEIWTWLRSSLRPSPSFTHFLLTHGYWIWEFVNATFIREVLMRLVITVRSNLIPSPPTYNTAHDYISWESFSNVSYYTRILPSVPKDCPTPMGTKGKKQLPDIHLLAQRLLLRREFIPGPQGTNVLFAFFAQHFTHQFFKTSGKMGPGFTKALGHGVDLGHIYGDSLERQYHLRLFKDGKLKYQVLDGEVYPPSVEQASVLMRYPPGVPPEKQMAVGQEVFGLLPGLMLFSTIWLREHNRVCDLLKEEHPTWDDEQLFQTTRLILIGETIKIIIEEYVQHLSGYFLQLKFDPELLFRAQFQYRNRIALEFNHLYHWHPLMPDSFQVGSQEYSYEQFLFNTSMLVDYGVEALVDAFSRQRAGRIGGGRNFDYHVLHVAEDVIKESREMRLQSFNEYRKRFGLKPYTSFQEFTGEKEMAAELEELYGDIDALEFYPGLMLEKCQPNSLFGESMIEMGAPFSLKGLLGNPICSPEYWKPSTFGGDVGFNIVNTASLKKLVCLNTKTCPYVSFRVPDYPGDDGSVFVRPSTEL
Method: In vivo cyclo-oxygenase selectivity was evaluated in rats by the method of Griffiths et al., described in Agents & Actions, 32, (1991), 313-320. […] Synovial fluid is secreted by the synovial membrane and is contained in joint cavities. During joint inflammation, COX-2 is induced in joint tissues and prostaglandin products accumulate in the synovial fluid. […] Inhibition of this stomach isozyme results in adverse gastrointestinal side effects.

[4] = at equipotent anti-inflammatory activity with indomethacin, Holtsinger et al.; cited from earlier work
[5] = inspection of plot of plasma level vs % COX-2 inhibition (Example 3 data)

**Q.** With `CC(C(=O)O)c1ccc2c(c1)[nH]c1ccc(Cl)cc12` (racemic) [Carprofen (rac.), 6-chloro-α-methyl-9H-carbazole-2-acetic acid] as the molecule, how does the “PGE2 Pg/mL/Well” value (COX-2 [1]; 2 mg/kg PO tablet, 0-hour (pre-dose)) read?
**A.** 293 Pg/mL/Well and 541 Pg/mL/Well and 409 Pg/mL/Well

**Q.** What about the “PGE2 Pg/mL/Well” value (COX-2 [1]; 4 mg/kg PO tablet, 0-hour (pre-dose)) of the same molecule?
**A.** 471 Pg/mL/Well and 393 Pg/mL/Well and 622 Pg/mL/Well

**Q.** What about the “PGE2 Pg/mL/Well” value (COX-2 [1]; 4 mg/kg PO tablet, 2-hour post-dose) of the same molecule?
**A.** 25 Pg/mL/Well and 21 Pg/mL/Well and 14 Pg/mL/Well

**Q.** What about the “PGE2 Pg/mL/Well” value (COX-2 [1]; 4 mg/kg PO tablet, 4-hour post-dose) of the same molecule?
**A.** 20 Pg/mL/Well and 25 Pg/mL/Well and 14 Pg/mL/Well

**Q.** What about the inhibition at 2 mg/kg (COX-2 [1]; read-out: COX-2 activity Percent Inhibition, 2 mg/kg PO tablet, 2-hour, based on each dog's zero hour value) of the same molecule?
**A.** 88%

**Q.** And the inhibition at 2 mg/kg (COX-2 [1]; read-out: COX-2 activity Percent Inhibition, 2 mg/kg PO tablet, 4-hour, based on each dog's zero hour value)?
**A.** 77%

**Q.** And the inhibition at 4 mg/kg (COX-2 [1]; read-out: COX-2 activity Percent Inhibition, 4 mg/kg PO tablet, 2-hour, based on each dog's zero hour value)?
**A.** 95%

**Q.** What about the inhibition at 4 mg/kg (COX-2 [1]; read-out: COX-2 activity Percent Inhibition, 4 mg/kg PO tablet, 4-hour, based on each dog's zero hour value) of the same molecule?
**A.** 96%

**Q.** And the “plasma carprofen concentration at which 80% COX-2 inhibition occurred” value (COX-2 [1]; [5])?
**A.** approximately 10 μg/mL

**Q.** And the “plasma carprofen concentration at which 90% COX-2 inhibition occurred” value (COX-2 [1]; [5])?
**A.** approximately 20 μg/mL

**Q.** And the “Plasma concentration” value ([2]; 2 mg/kg PO tablet, 2-hour)?
**A.** 21900 ng/mL and 8600 ng/mL and 17200 ng/mL

**Q.** What about the “Plasma concentration” value ([2]; 2 mg/kg PO tablet, 4-hour) of the same molecule?
**A.** 13400 ng/mL and 5700 ng/mL and 10600 ng/mL

**Q.** And the “Plasma concentration” value ([2]; 4 mg/kg PO tablet, 2-hour)?
**A.** 29900 ng/mL and 29000 ng/mL

**Q.** What about the “Plasma concentration” value ([2]; 4 mg/kg PO tablet, 4-hour) of the same molecule?
**A.** 21100 ng/mL and 27000 ng/mL

**Q.** What about the concentration at 2 h ([2]; dog, plasma, oral, 4 mg/kg, 4 mg/kg PO tablet, 2-hour) of the same molecule?
**A.** 37600 ng/mL

**Q.** And the concentration at 4 h ([2]; dog, plasma, oral, 4 mg/kg, 4 mg/kg PO tablet, 4-hour)?
**A.** 29100 ng/mL

**Q.** And the “PGE2 Pg/mL/Well” value (COX-2 [3]; 0-hour)?
**A.** 6.5 Pg/mL/Well

**Q.** What about the “PGE2 Pg/mL/Well” value (COX-2 [3]; 5-hour) of the same molecule?
**A.** 1.9 Pg/mL/Well

**Q.** And the “PGE2 Pg/mL/Well” value (COX-2 [3]; 24-hour)?
**A.** 3.2 Pg/mL/Well

**Q.** What about the inhibition at 2 mg/kg (COX-2 [3]; read-out: In vivo COX-2 activity Percent Inhibition, 2 mg/kg PO, 5-hour after carrageenan, group average) of the same molecule?
**A.** 71%

**Q.** And the inhibition at 2 mg/kg (COX-2 [3]; read-out: In vivo COX-2 activity Percent Inhibition, 2 mg/kg PO, 24-hour after carrageenan, group average)?
**A.** 51%

**Q.** What about the ED50 (COX-1) of the same molecule?
**A.** 6.4 mg/kg

**Q.** What about the “ulcerogenic potential, times less than indomethacin” value [4] of the same molecule?
**A.** 16 times
